Values quoted from earlier work as cited in PMC11187573, “Identification of SARS-CoV-2 Mpro inhibitors through deep reinforcement learning for de novo drug design and computational chemistry approaches” (RSC Medicinal Chemistry, 2024).

System: Mpro
Conditions: ML dataset, Origin COVID_Moonshot; ref COVID Moonshot; cited from earlier work

| Compound | IC50 |
| --- | --- |
| CS(=O)(=O)c1ccc(N2CCNCC2)cc1 | 91.6 µM |
| O=C(Cc1cccc(Cl)c1)Nc1cnccc1-c1ccccc1 | 33 µM |
| Cc1ccncc1NC(=O)Cc1cccc(F)c1 | 95.8 µM |
| Nc1cncc2c1CCCN2C(=O)Cc1cccc(Cl)c1 | 43.4 µM |
| Cc1ccncc1NC(=O)CN1C(=O)COc2ccc(Cl)cc21 | 49.4 µM |
| O=C(c1cc(=O)[nH]c2ccccc12)N1CCN(c2ccccc2F)CC1 | 24 µM |
| O=C(Nc1cncc2c1CNCC2)C1CCOc2ccc(Cl)cc21 (stereo not drawn) | 6.16 µM |
| Cc1ccncc1NC(=O)C1CCOc2ccc(Cl)cc21 (stereo not drawn) | 16 µM |
| CCCCOc1ccc(Cl)cc1CC(=O)Nc1cnccc1C | 20.2 µM |
| Cn1c(=O)[nH]c2cncc(NC(=O)C3CCOc4ccc(Cl)cc43)c21 (stereo not drawn) | 20.7 µM |
| Cc1ccncc1NC(=O)CN1CCC(C)CC1 | 49.2 µM |
| Cc1ccncc1CC(=O)Nc1cccc(Cl)c1 | 28.1 µM |
| COc1ccccc1OCCNC(=O)c1cc(=O)[nH]c2cccc(C)c12 | 6.61 µM |
| O=C(c1cc(=O)[nH]c2ccccc12)N1CCN(c2cccc(Cl)c2)C(=O)C1 | 12.7 µM |
| Cc1ccncc1N1CCN(c2cccc(Cl)c2)C1=O | 90.3 µM |
| O=C(Cc1cccc(Cl)c1)Nn1cnc2ccccc21 | 6.28 µM |
| Cc1ccncc1NC(=O)Cc1cccc(Br)c1 | 18.3 µM |
| CCCC(C(=O)Nc1cnccc1C)c1cccc(Cl)c1 (stereo not drawn) | 11.4 µM |
| O=C(Nc1cccnc1)N(CCC1CCCCC1)c1cccc(Cl)c1 | 3.18 µM |
| Cc1ccncc1NC(=O)Cc1cc(Cl)cc(NC2CCCC2O)c1 (stereo not drawn) | 29.3 µM |
| Cc1ccncc1NC(=O)Cc1cc(Cl)cc(NC2CC2C(F)(F)F)c1 (stereo not drawn) | 22.5 µM |
| O=C(Cc1cccc(Cl)c1)Nc1cncc2c1CCC2 | 4.91 µM |
| Cc1ccncc1NC(=O)CC(C)C(C)C (stereo not drawn) | 99 µM |

| Compound | IC50 |
| --- | --- |
| COc1ccccc1OCCNC(=O)c1cc(=O)[nH]c2ccccc12 | 5.35 µM |
| O=C(Cc1cc(Cl)cc2c1OCC2)Nc1cncc2ccccc12 | 0.97 µM |
| O=C(Cc1cccc(Cl)c1)Nn1nnc2ccccc21 | 18.4 µM |
| COc1cc(Cl)cc(CC(=O)Nc2cnccc2C)c1 | 40.2 µM |
| Cc1ccncc1NC(=O)Cc1cc(Cl)cc(-c2ccc(C)c(F)c2F)c1 | 44.1 µM |
| O=C(Cc1cccc(Cl)c1)Nc1cncc2nc[nH]c12 | 10.6 µM |
| O=C(Cc1cccc(Cl)c1)Nc1cnc2ccccn12 | 8.03 µM |
| Cn1cncc1NC(=O)Cc1cccc(Cl)c1 | 96.4 µM |
| O=C(Cc1cncnc1)Nc1cc(F)cc(OC2CC(=O)N2)c1 (stereo not drawn) | 24.9 µM |
| O=C(Cc1cccnc1)Nc1cccc(OC2CC(=O)N2)c1 (stereo not drawn) | 88.3 µM |
| Cc1cc(NC(=O)Cc2cncnc2)cc(OC2CC(=O)N2)c1 (stereo not drawn) | 34.3 µM |
| CC(=O)NCc1cc(Cl)cc(CC(=O)Nc2cnccc2C)c1 | 48.4 µM |
| Cc1ccncc1NC(=O)Cc1cc(Cl)cc(OC2CC(=O)N2)c1 (stereo not drawn) | 2.28 µM |
| Cc1ccncc1NC(=O)C(C)c1cc(Cl)cc(OC2CC(=O)N2)c1 (stereo not drawn) | 82.6 µM |
| Cc1ccncc1NC(=O)Nc1cccc(Cl)c1 | 55.1 µM |
| Cc1ccncc1NC(=O)C(C)c1cccc(Cl)c1 (stereo not drawn) | 19.6 µM |
| Cc1c(N)cncc1NC(=O)Cc1cccc(C#N)c1 | 24.1 µM |
| Cc1ccncc1NC(=O)Cc1cccc(C#N)c1 | 52.6 µM |
| Cc1ccncc1NC(=O)C(C)c1cccc(C#N)c1 (stereo not drawn) | 50.1 µM |
| Cc1c(N)cncc1NC(=O)Cc1cccc(Cl)c1 | 6.21 µM |
| Cc1ccncc1NC(=O)Cc1cccc(Cl)c1 | 19.2 µM |
| O=C(Nc1cncc2ccccc12)C1COc2ccc(Cl)cc21 (racemic) | 1.86 µM |
| CN(C(=O)Cn1nnc2ccccc21)c1ccc(Oc2ccc(C(F)(F)F)cn2)cc1 [AAR-POS-8a4e0f60-7] | 37.8 µM |

| Compound | IC50 |
| --- | --- |
| COc1cc(Cl)cc(OC(=O)Nc2cccnc2)c1 [AGN-NEW-891393a6-1] | 4.1 µM |
| CC(C)(C)c1ccc(N(C(=O)c2ccco2)C(C(=O)N2CCOCC2)c2cccnc2)cc1 (stereo not drawn) [ALP-POS-0c0a3b93-1] | 41 µM |
| CC(C)(C)c1ccc(N(C(=O)C2CCCO2)C(C(=O)NCCc2cccc(F)c2)c2cccnc2)cc1 (stereo not drawn) [ALP-POS-02c6a514-17] | 5.56 µM |
| Cc1ccncc1C(C(=O)NCCc1cccc(F)c1)N(C(=O)c1ccco1)c1ccc(C(C)(C)C)cc1 (stereo not drawn) [ALP-POS-02c6a514-44] | 0.112 µM |
| CC(C)(C)c1ccc(N(C(=O)c2ncc[nH]2)C(C(=O)NCCc2cccc(F)c2)c2cccnc2)cc1 (stereo not drawn) [ALP-POS-02c6a514-46] | 5.29 µM |
| CC(C)(C)c1ccc(N(C(=O)c2nccs2)C(C(=O)NCCc2cccc(F)c2)c2cccnc2)cc1 (stereo not drawn) [ALP-POS-02c6a514-49] | 0.8 µM |
| CC(C)(C)c1ccc(N(C(=O)c2cocn2)C(C(=O)NCCc2cccc(F)c2)c2cccnc2)cc1 (stereo not drawn) [ALP-POS-02c6a514-50] | 0.557 µM |
| CC(C)(C)c1ccc(N(C(=O)c2ccn[nH]2)C(C(=O)NCCc2cccc(F)c2)c2cccnc2)cc1 (stereo not drawn) [ALP-POS-02c6a514-52] | 1.78 µM |
| CC(C)(C)c1ccc(N(C(=O)c2ccco2)C(C(=O)NCCN2CCOCC2)c2cccnc2)cc1 (stereo not drawn) [ALP-POS-02c6a514-55] | 2.19 µM |
| CC(C)(C)c1ccc(N(C(=O)c2ccco2)C(C(=O)Nc2ccccc2)c2cccnc2)cc1 (stereo not drawn) [ALP-POS-02c6a514-56] | 11.2 µM |
| CC(C)(C)c1ccc(N(C(=O)c2ccco2)C(C(=O)NCc2ccccc2)c2cccnc2)cc1 (stereo not drawn) [ALP-POS-02c6a514-57] | 4.36 µM |
| O=C(C[C@@]1(C(=O)Nc2cncc3ccccc23)CCOc2ccc(Cl)cc21)N1CCN(C2CCOC2)CC1 (stereo partly drawn) [ALP-POS-2da19ca7-2] | 46.5 µM |
| O=C(Cc1cc(Cl)cc(OC2CC(=O)N2)c1)Nc1cncc2ccccc12 (stereo not drawn) [ALP-POS-3b848b35-2, O=C(Cc1cc(Cl)cc(OC2CC(=O)N2)c1)Nc1cncc2ccccc12, reference compound] | 0.18 µM |
| COc1c(Cl)cccc1OCCNC(=O)c1cc(=O)[nH]c2ccccc12 [ALP-POS-3fc1724e-1] | 11.5 µM |
| O=C(CC1(C(=O)Nc2cncc3ccccc23)CCOc2ccc(Cl)cc21)N1CCN(C2CCOC2)CC1 (stereo not drawn) [ALP-POS-5bb456a5-7] | 6.68 µM |
| O=C(C[C@]1(C(=O)Nc2cncc3ccccc23)CCOc2ccc(Cl)cc21)N1CCN(C2CCOC2)CC1 (stereo partly drawn) [ALP-POS-5bb456a5-8] | 1.99 µM |
| CN(C)c1ccc(N(Cc2ccccc2)C(=O)Cn2nnc3ccccc32)cc1 [ALP-POS-6d04362c-1] | 3.31 µM |
| O=C(Cn1nnc2ccccc21)N(Cc1ccsc1)c1ccc(N2CCOCC2)cc1 [ALP-POS-6d04362c-4] | 16.5 µM |
| CN(C)c1ccc(N(Cc2cscn2)C(=O)Cn2nnc3ccccc32)cc1 [ALP-POS-87c86d55-1] | 9.57 µM |
| CCC(=O)Nc1ccc(N(Cc2cscn2)C(=O)Cn2nnc3ccccc32)cc1 [ALP-POS-87c86d55-2] | 35.5 µM |
| CC(C)(C)c1ccc(N(C(=O)c2cocn2)C(C(=O)NCc2cccnc2)c2cccnc2)cc1 (stereo not drawn) [ALP-POS-88a7a97e-4] | 25.3 µM |
| COC(=O)C(C)NC(=O)C(c1cccnc1)N(C(=O)c1cocn1)c1ccc(C(C)(C)C)cc1 (stereo not drawn) [ALP-POS-88a7a97e-5] | 7.18 µM |
| COC(=O)[C@@H]1CC[C@H](NC(=O)C(c2cccnc2)N(C(=O)c2cocn2)c2ccc(C(C)(C)C)cc2)C1 (stereo partly drawn) [ALP-POS-88a7a97e-6] | 2.38 µM |

| Compound | IC50 |
| --- | --- |
| CC(C)(C)c1ccc(N(C(=O)c2cocn2)C(C(=O)NC2CCOCC2)c2cccnc2)cc1 (stereo not drawn) [ALP-POS-88a7a97e-9] | 3.9 µM |
| COC(=O)C1CC(NC(=O)C(c2cccnc2)N(C(=O)c2cocn2)c2ccc(C(C)(C)C)cc2)C1 (stereo not drawn) [ALP-POS-88a7a97e-15] | 3.99 µM |
| CC(C)(C)c1ccc(N(C(=O)c2cocn2)C(C(=O)NCC2CCOC2)c2cccnc2)cc1 (stereo not drawn) [ALP-POS-88a7a97e-26] | 5.42 µM |
| CC(C)(C)c1ccc(N(C(=O)c2cocn2)C(C(=O)NCC2CCCO2)c2cccnc2)cc1 (stereo not drawn) [ALP-POS-88a7a97e-27] | 5.15 µM |
| CC(C)(C)c1ccc(N(C(=O)c2cocn2)C(C(=O)NC2CCOC2)c2cccnc2)cc1 (stereo not drawn) [ALP-POS-88a7a97e-30] | 2.77 µM |
| COCCNC(=O)C(c1cccnc1)N(C(=O)c1cocn1)c1ccc(C(C)(C)C)cc1 (stereo not drawn) [ALP-POS-88a7a97e-31] | 8.46 µM |
| COC(=O)CNC(=O)C(c1cccnc1)N(C(=O)c1cocn1)c1ccc(C(C)(C)C)cc1 (stereo not drawn) [ALP-POS-88a7a97e-33] | 10.8 µM |
| CC(C)(C)c1ccc(N(C(=O)c2cocn2)C(C(=O)NC2COC2)c2cccnc2)cc1 (stereo not drawn) [ALP-POS-88a7a97e-34] | 4.07 µM |
| COC(=O)C1(NC(=O)C(c2cccnc2)N(C(=O)c2cocn2)c2ccc(C(C)(C)C)cc2)CCCC1 (stereo not drawn) [ALP-POS-88a7a97e-36] | 5.26 µM |
| CC(C)(C)c1ccc(N(C(=O)c2cocn2)C(C(=O)NC2CC(F)(F)C2)c2cccnc2)cc1 (stereo not drawn) [ALP-POS-88a7a97e-39] | 2.35 µM |
| COc1ccc(NC(=O)C(c2cccnc2)N(C(=O)c2cocn2)c2ccc(C(C)(C)C)cc2)cn1 (stereo not drawn) [ALP-POS-88a7a97e-41] | 5.37 µM |
| Cc1ccc(S(=O)(=O)CNC(=O)C(c2cccnc2)N(C(=O)c2cocn2)c2ccc(C(C)(C)C)cc2)cc1 (stereo not drawn) [ALP-POS-88a7a97e-42] | 62.9 µM |
| CC(C)(C)c1ccc(N(C(=O)c2cocn2)C(C(=O)NCC(=O)OCc2ccccc2)c2cccnc2)cc1 (stereo not drawn) [ALP-POS-88a7a97e-44] | 9.92 µM |
| CC(C)(C)c1ccc(N(C(=O)c2cocn2)C(C(=O)NCCN2CCOCC2)c2cccnc2)cc1 (stereo not drawn) [ALP-POS-88a7a97e-47] | 82.5 µM |
| CCOC(=O)c1ncoc1CNC(=O)C(c1cccnc1)N(C(=O)c1cocn1)c1ccc(C(C)(C)C)cc1 (stereo not drawn) [ALP-POS-88a7a97e-49] | 5.88 µM |
| CC(C)(C)c1ccc(N(C(=O)c2c[nH]c(=O)s2)C(C(=O)NCCc2cccc(F)c2)c2cccnc2)cc1 (stereo not drawn) [ALP-POS-305f6ec3-2] | 29.1 µM |
| CC(C)(C)c1ccc(N(C(=O)c2c[nH]nn2)C(C(=O)NCCc2cccc(F)c2)c2cccnc2)cc1 (stereo not drawn) [ALP-POS-305f6ec3-14] | 1.17 µM |
| CC(C)(C)c1ccc(N(C(=O)c2c[nH]c(=O)cn2)C(C(=O)NCCc2cccc(F)c2)c2cccnc2)cc1 (stereo not drawn) [ALP-POS-305f6ec3-33] | 77.1 µM |
| CC(C)(C)c1ccc(N(C(=O)c2cc(CO)[nH]n2)C(C(=O)NCCc2cccc(F)c2)c2cccnc2)cc1 (stereo not drawn) [ALP-POS-305f6ec3-38] | 18.8 µM |
| CC(C)(C)c1ccc(N(C(=O)c2cncs2)C(C(=O)NCCc2cccc(F)c2)c2cccnc2)cc1 (stereo not drawn) [ALP-POS-305f6ec3-41] | 24.2 µM |
| Cn1ncc(C(=O)N(c2ccc(C(C)(C)C)cc2)C(C(=O)NCCc2cccc(F)c2)c2cccnc2)n1 (stereo not drawn) [ALP-POS-305f6ec3-46] | 17.6 µM |
